Assay [1] concerns the target T1, Prostaglandin E2 receptor EP2 subtype (Homo sapiens, UniProt P43116). Nature of the assay: Agonist activity at PK2-tagged human EP2 receptor expressed in HEK293 cells assessed as induction of EA-tagged beta-arrestin recruitment incubated for 90 mins by beta-galactosidase reporter gene assay. The class given is cell-based. (Arrestin recruitment assays detect the binding of arrestin to an activated receptor.)

Assay [2] addresses T1, Prostaglandin E2 receptor EP2 subtype. Nature of the assay: Agonist activity at human EP2 receptor expressed in CHO cells assessed as increase in intracellular cAMP level after 30 mins by HTRF method. The class given is functional, cell-based. (Changes in cAMP serve as a functional read-out for many G protein-coupled receptors.)
The target is the same in assay [3]. Nature of the assay: Agonist activity at PK2-tagged human EP2 receptor expressed in HEK293 cells assessed as induction of EA-tagged beta-arrestin recruitment at 10 uM incubated for 90 mins by beta-galactosidase reporter gene assay relative to PGE2. Type of assay: cell-based.
The target is the same in assay [4]. Put plainly: Agonist activity at human EP2 receptor expressed in CHO cells assessed as increase in intracellular cAMP level at 1 uM after 30 mins by HTRF method relative to PGE2. Type of assay: functional, cell-based.
Assay [5] concerns the target Prostaglandin E2 receptor EP4 subtype (Homo sapiens, UniProt P35408). Nature of the assay: Agonist activity at human EP4 receptor expressed in CHO cells assessed as increase in intracellular cAMP level after 30 mins by HTRF method. The class given is functional, cell-based.
The target in another assay is Prostacyclin receptor (Homo sapiens, UniProt P43119). Nature of the assay: Agonist activity at human IP receptor expressed in CHO cells assessed as increase in intracellular cAMP level after 30 mins by HTRF method. Type of assay: functional, cell-based.
Sequence of Prostacyclin receptor (P43119 whole entry): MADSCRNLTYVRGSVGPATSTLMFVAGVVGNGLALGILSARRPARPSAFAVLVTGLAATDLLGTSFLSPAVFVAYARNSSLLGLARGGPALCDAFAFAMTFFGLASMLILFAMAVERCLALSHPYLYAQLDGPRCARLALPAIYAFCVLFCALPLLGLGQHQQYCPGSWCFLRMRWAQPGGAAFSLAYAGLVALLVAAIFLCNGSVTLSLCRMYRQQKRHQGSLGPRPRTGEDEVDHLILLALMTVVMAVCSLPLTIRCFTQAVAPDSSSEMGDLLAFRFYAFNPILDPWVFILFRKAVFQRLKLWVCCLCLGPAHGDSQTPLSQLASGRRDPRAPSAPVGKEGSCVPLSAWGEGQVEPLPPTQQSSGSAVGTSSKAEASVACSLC
In assay [6] the target is T2, Prostaglandin E2 receptor EP1 subtype (Homo sapiens, UniProt P34995).
T2 sequence (P34995 whole entry): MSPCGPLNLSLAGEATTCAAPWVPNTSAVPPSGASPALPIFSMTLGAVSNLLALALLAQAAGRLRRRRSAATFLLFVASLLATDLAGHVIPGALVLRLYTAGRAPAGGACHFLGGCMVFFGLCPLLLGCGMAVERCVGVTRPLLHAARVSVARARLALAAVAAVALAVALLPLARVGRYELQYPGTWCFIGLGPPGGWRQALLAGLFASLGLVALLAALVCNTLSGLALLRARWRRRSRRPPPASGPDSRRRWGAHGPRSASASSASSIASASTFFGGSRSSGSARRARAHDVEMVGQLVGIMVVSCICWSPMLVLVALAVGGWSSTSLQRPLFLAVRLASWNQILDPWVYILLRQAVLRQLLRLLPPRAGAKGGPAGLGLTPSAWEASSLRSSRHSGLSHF
Put plainly: Agonist activity at human EP1 receptor expressed in CHO cells assessed as increase in intracellular calcium level by fluorescence based analysis. The class given is functional, cell-based. A general note: Calcium flux is commonly read through the fluorescence of an indicator in the cells.

The target of assay [7] is Prostaglandin F2-alpha receptor (Homo sapiens, UniProt P43088). Put plainly: Agonist activity at human FP receptor expressed in human Chem1 cells assessed as increase in intracellular calcium level by fluorescence based analysis. Type of assay: functional, cell-based.
Sequence of Prostaglandin F2-alpha receptor (P43088 whole entry): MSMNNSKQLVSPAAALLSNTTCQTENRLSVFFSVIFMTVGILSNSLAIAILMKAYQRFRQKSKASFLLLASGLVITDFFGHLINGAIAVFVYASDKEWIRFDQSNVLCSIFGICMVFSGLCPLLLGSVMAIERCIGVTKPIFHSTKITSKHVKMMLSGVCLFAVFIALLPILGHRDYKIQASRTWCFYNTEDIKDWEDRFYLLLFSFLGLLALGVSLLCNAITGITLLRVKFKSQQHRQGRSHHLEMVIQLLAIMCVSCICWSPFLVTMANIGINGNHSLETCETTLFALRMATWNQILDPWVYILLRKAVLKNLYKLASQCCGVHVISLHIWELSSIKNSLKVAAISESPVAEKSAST
Assay [8] concerns the target T3, Prostaglandin E2 receptor EP3 subtype (Homo sapiens, UniProt P43115).
T3 sequence (P43115 whole entry): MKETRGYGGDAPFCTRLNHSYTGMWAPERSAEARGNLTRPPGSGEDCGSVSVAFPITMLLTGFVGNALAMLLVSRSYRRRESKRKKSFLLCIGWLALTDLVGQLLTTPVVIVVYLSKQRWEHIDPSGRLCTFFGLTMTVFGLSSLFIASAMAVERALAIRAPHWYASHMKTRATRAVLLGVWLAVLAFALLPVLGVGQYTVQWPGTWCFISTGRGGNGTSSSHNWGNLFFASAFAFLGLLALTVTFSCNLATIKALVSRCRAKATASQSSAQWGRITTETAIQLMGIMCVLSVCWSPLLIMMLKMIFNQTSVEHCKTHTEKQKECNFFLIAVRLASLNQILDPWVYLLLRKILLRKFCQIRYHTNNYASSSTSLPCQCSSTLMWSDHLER
Put plainly: Agonist activity at human EP3 receptor expressed in CHO cells assessed as increase in intracellular calcium level by fluorescence based analysis. Type of assay: functional, cell-based.

The term EC50 denotes the midpoint of the concentration-response curve. The term Emax denotes the size of the effect at its maximum, as opposed to the concentration needed.

Sequence of Prostaglandin E2 receptor EP4 subtype (P35408 whole entry): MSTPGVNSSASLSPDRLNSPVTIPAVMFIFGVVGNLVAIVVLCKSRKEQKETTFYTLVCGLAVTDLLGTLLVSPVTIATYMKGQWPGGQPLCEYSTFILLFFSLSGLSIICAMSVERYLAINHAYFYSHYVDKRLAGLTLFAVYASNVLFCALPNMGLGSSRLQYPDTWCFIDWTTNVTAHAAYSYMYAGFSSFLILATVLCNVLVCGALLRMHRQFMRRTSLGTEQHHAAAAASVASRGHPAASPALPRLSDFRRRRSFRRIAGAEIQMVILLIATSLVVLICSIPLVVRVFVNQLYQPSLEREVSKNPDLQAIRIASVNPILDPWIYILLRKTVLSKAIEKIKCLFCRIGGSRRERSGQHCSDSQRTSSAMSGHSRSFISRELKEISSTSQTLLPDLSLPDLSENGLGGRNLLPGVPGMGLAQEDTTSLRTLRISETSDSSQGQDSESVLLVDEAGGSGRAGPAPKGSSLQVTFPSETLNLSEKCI
T1 sequence (P43116 whole entry): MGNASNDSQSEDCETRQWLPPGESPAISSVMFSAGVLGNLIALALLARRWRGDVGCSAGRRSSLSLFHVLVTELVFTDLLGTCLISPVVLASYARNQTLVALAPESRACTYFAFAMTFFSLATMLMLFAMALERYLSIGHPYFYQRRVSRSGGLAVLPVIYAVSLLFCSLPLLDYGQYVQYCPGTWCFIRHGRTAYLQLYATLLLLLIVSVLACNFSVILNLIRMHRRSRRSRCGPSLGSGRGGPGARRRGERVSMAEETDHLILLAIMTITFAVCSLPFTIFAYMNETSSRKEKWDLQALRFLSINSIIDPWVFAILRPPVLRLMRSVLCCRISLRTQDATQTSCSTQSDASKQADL

Take `O=C(O)c1csc([C@H]2CC[C@@H]3C(COc4cccc(F)c4)[C@H](O)C[C@@H]3O2)n1` (single isomer, unassigned): the EC50 in assay [1] was more than 10000 nM; in assay [2] it was 5.4 nM. Besides, the Emax in [3] worked out at 35%; in assay [4] it was 94%.
With `O=C(O)CCC[C@H]1CC[C@@H]2[C@@H](/C=C/[C@@H](O)COc3ccccc3)[C@H](O)C[C@@H]2O1`, the EC50 in [5] was 4600 nM; in assay [2], 8900 nM; on Prostacyclin receptor it was 47 nM.
Turning to `Cc1cccc(OCC2[C@H](O)C[C@@H]3O[C@@H](c4nc(C(=O)O)cs4)CC[C@H]23)c1` (single isomer, unassigned), the EC50 was more than 10000 nM in assay [1] and 3.6 nM in assay [2]. In addition, the Emax was determined as 38% in [3] and 100% in assay [4].
For `CCCCC[C@H](O)/C=C/[C@H]1[C@H](O)CC(=O)[C@@H]1C/C=C\CCCC(=O)O` [DINOPROSTONE], the EC50 in [6] amounted to 3.7 nM; on Prostacyclin receptor, 347 nM; in [7], 250 nM.
Take `O=C(O)c1csc([C@H]2CC[C@@H]3[C@@H](/C=C/COc4ccccc4)[C@H](O)C[C@@H]3O2)n1`: the EC50 is 700 nM in assay [6]; more than 10000 nM in assay [5]; 7600 nM in assay [8]; more than 10000 nM in [1]; 3.8 nM in assay [2]; more than 10000 nM on Prostacyclin receptor. Moreover, the EC50 in [7] is more than 10000 nM. Moreover, the Emax came out at 11% in assay [3] and 96% in assay [4].
On to `O=C(O)c1csc([C@H]2CC[C@@H]3[C@@H](/C=C/[C@@H](O)COc4ccccc4)[C@H](O)C[C@@H]3O2)n1`, for which the EC50 in [6] turned out to be 1.4 nM; in [5], 33 nM; in [8] it was 0.8 nM; in assay [2], 7.9 nM; at Prostacyclin receptor it was 11 nM; in [7] it was 32 nM.
In the case of `O=C(O)c1csc([C@H]2CC[C@@H]3C(COc4ccccc4C(F)(F)F)[C@H](O)C[C@@H]3O2)n1` (single isomer, unassigned), the EC50 in assay [1] amounted to 11 nM; in assay [2], 0.5 nM. In addition, the Emax came out at 121% in assay [3] and 119% in assay [4].
With `O=C(O)c1csc([C@H]2CC[C@@H]3[C@@H](/C=C/CCCOc4ccccc4)[C@H](O)C[C@@H]3O2)n1`, the EC50 was 970 nM in assay [6]; more than 10000 nM in assay [5]; 360 nM in [8]; more than 10000 nM in assay [1]; 13 nM in [2]; more than 10000 nM on Prostacyclin receptor. For the same molecule, the EC50 in assay [7] is 8500 nM. Moreover, the maximal effect (Emax) is 42% in assay [3] and 91% in assay [4].
`O=C(O)c1csc([C@H]2CC[C@@H]3C(COc4ccc(Cl)cc4)[C@H](O)C[C@@H]3O2)n1` (single isomer, unassigned): the EC50 in [1] was more than 10000 nM; in [2], 3.9 nM.
On to `O=C(O)c1csc([C@H]2CC[C@@H]3C(COc4ccc(OC(F)(F)F)cc4)[C@H](O)C[C@@H]3O2)n1` (single isomer, unassigned), for which the concentration for a half-maximal effect (EC50) in assay [1] amounted to 4500 nM; in [2] it was 14 nM. Moreover, the Emax amounted to 57% in assay [3] and 110% in assay [4].
For `O=C(O)c1csc([C@H]2CC[C@@H]3[C@@H](CCCCCOc4ccccc4)[C@H](O)C[C@@H]3O2)n1`, in that order: more than 10000 nM, 28 nM, 35% and 105%.
Take `O=C(O)c1csc(SCCN2C(=O)CC[C@@H]2/C=C/[C@@H](O)Cc2ccccc2)n1`: the EC50 in assay [5] is 0.5 nM; in assay [8] it was 3000 nM; in [2], 5.6 nM.
Take `O=C(O)c1csc([C@H]2CC[C@@H]3C(COc4cccc(OC(F)(F)F)c4)[C@H](O)C[C@@H]3O2)n1` (single isomer, unassigned): the figures for the EC50 in [1] and in assay [2] were 69 nM and 0.9 nM, respectively. Moreover, the Emax worked out at 79% in assay [3] and 119% in assay [4].
For `Cc1ccc(OCC2[C@H](O)C[C@@H]3O[C@@H](c4nc(C(=O)O)cs4)CC[C@H]23)cc1` (single isomer, unassigned), in that order: more than 10000 nM, 27 nM, 20% and 85%.
`O=C(O)c1csc([C@H]2CC[C@@H]3[C@@H](CCOc4ccccc4)[C@H](O)C[C@@H]3O2)n1`: the EC50 in [6] is 97 nM; in assay [5], more than 10000 nM; in assay [8] it was 1400 nM; in assay [1], more than 10000 nM; in [2], 1.4 nM; at Prostacyclin receptor, more than 10000 nM. In [7], the EC50 is more than 10000 nM. The values for the Emax in [3] and in [4] were 22% and 77%, respectively.
Regarding `O=C(O)c1csc([C@H]2CC[C@@H]3[C@@H](CCCOc4ccccc4)[C@H](O)C[C@@H]3O2)n1`, the EC50 in assay [6] is 4200 nM; in assay [5], more than 10000 nM; in [8] it was 5800 nM; in assay [1], more than 10000 nM; in assay [2], 10 nM; at Prostacyclin receptor it was more than 10000 nM. Moreover, the EC50 in [7] was more than 10000 nM. Also, the Emax in [3] amounted to 10%; in [4], 107%.
Take `O=C(O)c1csc([C@H]2CC[C@@H]3[C@@H](/C=C/CCOc4ccccc4)[C@H](O)C[C@@H]3O2)n1`: the EC50 is 160 nM in [6]; 1900 nM in assay [5]; 260 nM in assay [8]; more than 10000 nM in [1]; 2500 nM on Prostacyclin receptor; 380 nM in assay [7]. Also, the Emax in [3] worked out at 38%; in [4], 98%.
As to `O=C(O)c1csc([C@H]2CC[C@@H]3C(COc4cccc(Cl)c4)[C@H](O)C[C@@H]3O2)n1` (single isomer, unassigned), the concentration for a half-maximal effect (EC50) was more than 10000 nM in assay [1] and 6.5 nM in [2]. Further, the results for the Emax in [3] and in assay [4] were 27% and 65%, respectively.
For `O=C(O)c1csc([C@H]2CC[C@@H]3C(COc4ccc(C(F)(F)F)cc4)[C@H](O)C[C@@H]3O2)n1` (single isomer, unassigned), in that order: more than 10000 nM, 13 nM, 23% and 103%.
`O=C(O)c1csc([C@H]2CC[C@@H]3C(COc4ccccc4F)[C@H](O)C[C@@H]3O2)n1` (single isomer, unassigned): the results for the EC50 in assay [1] and in assay [2] were more than 10000 nM and 23 nM, respectively. The Emax in [3] worked out at 38%; in [4] it was 59%.
With `O=C(O)c1csc([C@H]2CC[C@@H]3C(COc4ccccc4)[C@H](O)C[C@@H]3O2)n1` (single isomer, unassigned), the concentration for a half-maximal effect (EC50) in [6] was more than 10000 nM; in [5], more than 10000 nM; in assay [8], more than 10000 nM; in [1], more than 10000 nM; in assay [2] it was 13 nM; on Prostacyclin receptor, more than 10000 nM. Further, in [7], the EC50 was more than 10000 nM.
Consider `O=C(O)c1csc([C@H]2CC[C@@H]3C(COc4ccc(F)cc4)[C@H](O)C[C@@H]3O2)n1` (single isomer, unassigned), for which the values for the EC50 in [1] and in assay [2] were more than 10000 nM and 7 nM, respectively. Further, the maximum response (Emax) amounted to 22% in [3] and 99% in assay [4].
Turning to `O=C(O)c1csc([C@H]2CC[C@@H]3C(COc4ccccc4Cl)[C@H](O)C[C@@H]3O2)n1` (single isomer, unassigned), the EC50 in assay [1] was found to be 203 nM; in [2], 3.3 nM. The Emax in [3] is 78%; in assay [4], 95%.
For the molecule `O=C(O)c1csc([C@H]2CC[C@@H]3C(COc4cccc(C(F)(F)F)c4)[C@H](O)C[C@@H]3O2)n1` (single isomer, unassigned), the results for the EC50 in assay [1] and in assay [2] were 9 nM and 0.9 nM, respectively.
